# In patent US9878007B2, “Syndecan peptides and polypeptides as inhibitors of vascular endothelial growth factor receptor-2 (VEGFR2) and very late antigen-4 (VLA-4)” (Wisconsin Alumni Research Foundation, priority 2015, dated 2018):
# No end group written: not given here.
# Tests used:
# CAG myeloma cells [1] = assay: Cell spreading / attachment assay of CAG myeloma cells on FN or VCAM-1; format: cell-based, human; details: 0.3 μM peptide; for induction of HPSE^low cell spreading by S1ED peptides: on VCAM-1
# Experimental: Nitrocellulose-coated slides were coated for 2 hr at 37° C. with 40 μg/ml FN (kindly provided by Dr. Donna Peters, University of Wisconsin-Madison) or 5 μg/ml recombinant VCAM-1/Fc chimera (R&D Systems) in calcium and magnesium-free PBS (CMF-PBS; 135 mM NaCl, 2.7 mM KCl, 10.2 mM Na2HPO4-7H20 and 1.75 mM KH2PO4, pH7.4). Slides were blocked for 1 hr at 37° C. with RPMI 1640 containing 1% heat-denatured BSA (plating medium). Cells in plating medium were allowed to attach and spread for 2.5 hr at 37° C. Slides were fixed in 4% EM grade paraformaldehyde (Electron Microscopy Sciences) in CMF-PBS and labeled for 30 min in 0.13 μM rhodamine phalloidin (Invitrogen) in CMF-PBS. Coverslips were mounted in non-fluorescing mounting medium (Immumount; Thermo Shandon) and allowed to dry. All images were acquired with a Nikon Microphot FX microscope using a 20× objective (Nikon; Ex 541-551, DM 580, Barrier 590), Photometric CoolSnap ES camera, and version 7.7.3.0 Metamorph© Imaging software (Molecular Devices). All images represent results from triplicate wells and at least three independent experiments.
# [2] = system: P3x63Ag8 mouse myeloma cells; assay: Invasion of P3x63Ag8 myeloma cells through FN-coated filters; format: cell-based; details: 16 hr
# Experimental: FIG. 7A-B. S1ED^214-236, specific for VEGFR2 coupling to VLA-4, blocks myeloma cell invasion but not adhesion. (FIG. 7A) P3x63Ag8 mouse myeloma cells are plating on the VLA-4 ligand FN in the presence or absence of 30 uM S1ED^210-233 (SEQ ID No: 4) or S1ED^214-236 (SEQ ID No: 7) for 2.5 hr. (FIG. 7B) P3x63Ag8 myeloma cells are plated on FN-coated filters in the presence of HPSE inhibitor OGT2115, VLA-4 blocking antibody P1H4, VEGFR2 inhibitor Vandetanib or S1ED^210-233 or S1ED^214-236 and allowed to migrate through the filter for 16 hr. Small black dots are the pores in the filter.
# The bottom chambers of Transwell filter chambers (8 μm pores; Corning) were coated with 40 μg/ml of FN. Cells (5×10^5 in 0.2 ml plating medium) were placed in the upper chamber and incubated for 16 hr at 37° C. in the CO2 incubator. After incubation, cells in the upper chamber were removed and cells on the bottom side of the filter were fixed in 4% paraformaldehyde (PFA) and stained with 0.1% Crystal Violet before imaging. Cells from at least five random fields were counted.
# CAG myeloma cells [3] = assay: Cell spreading / attachment assay of CAG myeloma cells on FN or VCAM-1; format: cell-based, human; details: on FN, 2 hr; for HPSE^high cell adhesion / HPSE^high cell spreading: 0, 3, 10 and 30 μM peptide; for HPSE^low cell adhesion: high concentrations (30 μM)
# VEGFR2 and VLA-4 = biological target: T1, VEGFR2 and VLA-4 (Homo sapiens, UniProt P05556+P13612+P35968); assay: Activation / inhibition of Sdc1-mediated coupling of VEGFR2 to VLA-4 (FIGS. 6A-H); format: cell-based
# T1 construct: the α4-integrin (VLA-4), which is expressed on myeloma cells; endogenous in cells; host or cells: CAG human myeloma cells (HPSE^low / HPSE^high) plated on fibronectin
# T1 sequence (P35968 20-1356): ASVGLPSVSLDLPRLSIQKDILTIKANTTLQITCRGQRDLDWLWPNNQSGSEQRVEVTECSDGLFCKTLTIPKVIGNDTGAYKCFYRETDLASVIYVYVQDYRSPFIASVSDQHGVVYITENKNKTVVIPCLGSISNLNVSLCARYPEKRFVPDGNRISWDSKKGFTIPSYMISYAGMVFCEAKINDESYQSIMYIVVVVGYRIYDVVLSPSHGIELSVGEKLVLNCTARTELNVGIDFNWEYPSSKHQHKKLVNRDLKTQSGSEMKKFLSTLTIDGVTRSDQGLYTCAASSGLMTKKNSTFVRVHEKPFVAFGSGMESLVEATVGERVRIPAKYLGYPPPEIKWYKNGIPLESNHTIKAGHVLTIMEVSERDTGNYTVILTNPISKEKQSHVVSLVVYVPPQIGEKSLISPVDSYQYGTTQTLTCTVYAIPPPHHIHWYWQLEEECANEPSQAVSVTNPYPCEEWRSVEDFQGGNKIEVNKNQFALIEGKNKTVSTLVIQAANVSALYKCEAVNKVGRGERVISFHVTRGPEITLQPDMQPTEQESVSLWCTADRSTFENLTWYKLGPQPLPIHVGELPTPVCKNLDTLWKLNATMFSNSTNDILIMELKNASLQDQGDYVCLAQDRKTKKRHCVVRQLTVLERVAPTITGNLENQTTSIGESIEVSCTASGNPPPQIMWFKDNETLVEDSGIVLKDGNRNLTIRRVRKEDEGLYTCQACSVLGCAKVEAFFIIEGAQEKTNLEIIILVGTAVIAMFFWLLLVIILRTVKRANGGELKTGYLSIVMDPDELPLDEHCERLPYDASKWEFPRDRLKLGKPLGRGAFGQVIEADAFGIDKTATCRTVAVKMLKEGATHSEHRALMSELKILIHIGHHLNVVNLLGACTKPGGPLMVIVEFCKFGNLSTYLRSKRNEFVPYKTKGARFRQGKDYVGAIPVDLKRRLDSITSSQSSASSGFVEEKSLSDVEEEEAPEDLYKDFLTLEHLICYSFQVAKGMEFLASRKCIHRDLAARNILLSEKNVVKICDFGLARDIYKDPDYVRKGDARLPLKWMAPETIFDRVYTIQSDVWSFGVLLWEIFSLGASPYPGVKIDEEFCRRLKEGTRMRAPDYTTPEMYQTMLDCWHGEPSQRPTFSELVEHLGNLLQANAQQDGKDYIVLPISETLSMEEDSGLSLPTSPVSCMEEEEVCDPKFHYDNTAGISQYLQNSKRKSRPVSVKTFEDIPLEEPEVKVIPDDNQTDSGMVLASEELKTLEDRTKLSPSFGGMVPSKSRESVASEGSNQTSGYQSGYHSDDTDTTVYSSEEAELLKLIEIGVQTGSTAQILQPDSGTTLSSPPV
# T1 sequence (P13612 34-1032): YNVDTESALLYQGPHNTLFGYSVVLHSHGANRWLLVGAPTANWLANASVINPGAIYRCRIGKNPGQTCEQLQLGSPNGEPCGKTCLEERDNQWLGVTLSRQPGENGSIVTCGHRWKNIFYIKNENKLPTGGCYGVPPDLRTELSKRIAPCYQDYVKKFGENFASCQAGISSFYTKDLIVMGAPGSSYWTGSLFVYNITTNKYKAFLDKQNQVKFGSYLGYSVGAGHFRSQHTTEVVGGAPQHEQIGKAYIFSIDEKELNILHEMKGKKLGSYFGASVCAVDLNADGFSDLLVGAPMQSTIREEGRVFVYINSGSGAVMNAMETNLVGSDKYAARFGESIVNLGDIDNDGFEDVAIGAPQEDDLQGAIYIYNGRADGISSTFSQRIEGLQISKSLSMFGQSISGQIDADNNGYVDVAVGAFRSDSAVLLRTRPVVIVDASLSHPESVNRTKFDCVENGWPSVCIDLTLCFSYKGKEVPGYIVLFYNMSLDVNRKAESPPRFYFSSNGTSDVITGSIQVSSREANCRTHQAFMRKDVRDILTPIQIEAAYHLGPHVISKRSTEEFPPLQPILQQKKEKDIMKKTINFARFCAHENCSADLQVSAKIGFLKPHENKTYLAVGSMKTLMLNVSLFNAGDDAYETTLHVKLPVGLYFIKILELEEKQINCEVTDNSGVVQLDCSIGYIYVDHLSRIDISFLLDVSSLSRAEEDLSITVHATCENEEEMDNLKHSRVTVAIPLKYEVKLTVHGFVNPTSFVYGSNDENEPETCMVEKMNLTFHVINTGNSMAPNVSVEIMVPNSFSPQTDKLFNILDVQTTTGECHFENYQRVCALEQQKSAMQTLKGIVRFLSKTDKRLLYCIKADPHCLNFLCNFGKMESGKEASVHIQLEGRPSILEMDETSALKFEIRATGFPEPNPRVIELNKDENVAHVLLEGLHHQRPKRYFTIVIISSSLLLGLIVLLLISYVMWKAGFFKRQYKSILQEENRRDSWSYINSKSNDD
# T1 sequence (P05556 21-798): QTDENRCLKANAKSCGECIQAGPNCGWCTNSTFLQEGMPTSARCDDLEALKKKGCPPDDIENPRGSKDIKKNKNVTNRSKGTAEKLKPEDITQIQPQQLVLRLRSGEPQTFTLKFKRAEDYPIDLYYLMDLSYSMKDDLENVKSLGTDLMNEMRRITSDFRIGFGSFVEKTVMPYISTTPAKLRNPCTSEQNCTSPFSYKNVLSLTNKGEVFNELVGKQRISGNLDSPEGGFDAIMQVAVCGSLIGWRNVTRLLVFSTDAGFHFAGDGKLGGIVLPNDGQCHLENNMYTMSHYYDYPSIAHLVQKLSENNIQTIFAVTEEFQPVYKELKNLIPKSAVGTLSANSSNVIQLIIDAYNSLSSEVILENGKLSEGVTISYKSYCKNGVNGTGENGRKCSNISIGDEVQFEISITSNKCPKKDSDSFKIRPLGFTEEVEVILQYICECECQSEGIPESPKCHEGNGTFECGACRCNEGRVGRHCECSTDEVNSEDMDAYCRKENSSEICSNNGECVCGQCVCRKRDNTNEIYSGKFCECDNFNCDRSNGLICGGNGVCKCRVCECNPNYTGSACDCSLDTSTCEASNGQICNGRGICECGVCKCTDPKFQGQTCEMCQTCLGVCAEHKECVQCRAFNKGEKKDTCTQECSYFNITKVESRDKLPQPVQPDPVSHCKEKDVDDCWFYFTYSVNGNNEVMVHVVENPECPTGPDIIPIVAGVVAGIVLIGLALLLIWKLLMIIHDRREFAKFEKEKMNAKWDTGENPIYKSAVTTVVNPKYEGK
# Experimental: FIGS. 6A-G. Peptides derived from the active site in Sdc1 activate or inhibit adhesion and invasion. (FIG. 6A) Transwell migration assays towards FN (for 16 hrs) were performed for HPSE low or high cells in the presence of 0, 0.3, 3, and 30 μM of S1ED^210-240. Cells migrating to the bottom side of the filter were counted from five random images for each treatment. (FIG. 6B) The sequence of S1ED210-240 is shown (SEQ ID NO: 3), as well as […] truncation mutants of the peptide (SEQ ID NOs: 5, 2, 4 and 7). Amino acids shown in red appear necessary for the spreading and invasive activity. (FIG. 6C) Images of HPSE^low and HPSE^high cells plated on FN for 2 hr. (FIG. 6D) HPSE^low cells were treated with 0, 0.3, 3, 10 and 30 μM of S1ED^210-236, S1ED^210-233, or S1ED^214-240, plated on FN for 2 hr, fixed and stained with fluorescent phalloidin. Cells from five random images were quantified for cell attachment and cell spreading. (FIG. 6E) HPSE^high cells were treated with 0, 3, 10, and 30 μM of S1ED^210-236, S1ED^210-233, and S1ED^214-240, plated on FN for 2 hr, then fixed, imaged and quantified as in FIG. 6D. (FIG. 6F) Transwell migration assays towards FN (for 16 hr) were performed for HPSE^low or HPSE^high cells in the presence of 30 μM of S1ED^210-236, S1ED^210-233, S1ED^214-240 and Vandetanib. (FIG. 6G) HPSE^low cell lysates were incubated overnight with glutathione beads coated with GST or GST-S1ED in the absence or presence of 30 μM of S1ED^210-236, S1ED^210-233, and S1ED^214-240. Capture of VLA-4 or VEGFR2 was detected by immunoblotting. Sequences in FIG. 6B are 210-240 (SEQ ID NO: 3), 210-236 (SEQ ID NO: 2), 210-233 (SEQ ID NO: 4), 214-240 (SEQ ID NO: 5) and 214-236 (SEQ ID NO: 7).
# It is envisioned that a peptide that contains binding sites for both VEGFR2 and VLA-4, such as 210-236, has the capacity to bridge both receptors and link them together. This activates signaling that the cells use for migration and invasion. […]
Substance,induction of HPSE^low cell spreading by S1ED peptides (CAG myeloma cells [1]),invasion / migration of P3X cells through FN-coated filters [2],HPSE^high cell adhesion (CAG myeloma cells [3]),HPSE^high cell spreading (CAG myeloma cells [3]),HPSE^low cell adhesion (CAG myeloma cells [3]),"EC50 (VEGFR2 and VLA-4; FIGS. 6A-H, read-out: EC50 of bridging VEGFR2 and VLA-4, activating signaling used for migration and invasion)",IC50 (VEGFR2 and VLA-4; read-out: IC50 as inhibitor of the VLA-4/VEGFR2 coupling mechanism),rescue of HPSE^high spreading blocked by MMP9 blocking antibody (CAG myeloma cells [1]; on FN),"rescue of HPSE^high spreading blocked by Vandetanib (CAG myeloma cells [1]; on FN, 1 μM Vandetanib)","HPSE^low cell spreading (CAG myeloma cells [3]; 0, 0.3, 3, 10 and 30 μM peptide)"
"S1ED^210-233: syndecan-1 ectodomain peptide, residues 210-233 (SEQ ID NO: 4) (DFTFETSGENTAVVAVEPDRRNQS)",do not,blocked by either peptide,induce cell detachment,block cell spreading when added at increasing concentrations,block cell adhesion,,,,,
DFTFETSGENTAVVAVEPDRRNQSPVD [S1ED^210-236],retains full activity,,induce cell detachment,block cell spreading when added at increasing concentrations,block cell adhesion,0.3 µM,10 µM,rescued spreading in the presence of MMP9 inhibitor,fails to rescue spreading blocked by Vandetanib,induces HPSE^low cell spreading equal to that observed with S1ED^210-240
